Experimental findings from US9590187B2, “Substituent-eliminable diketopyrrolopyrrole derivative, organic semiconductor material precursor solution, organic semiconductor material, and organic semiconductor material film” (RICOH COMPANY, LTD., priority 2013, dated 2017) are described below.

A short description of data set [1]: Evaluation of solubility in organic solvents (saturated solution after reflux, cooling to room temperature, filtration, drying). The class given is physicochemical. To be noted: reflux 10 minutes, cooled to room temperature, stand 16 hours, 0.2-μm PTFE filter. How it is done: Add each of the compounds obtained in the above Examples 1-6 to each of toluene, THF, and chloroform until it gets undissolved. Agitate each solution for 10 minutes under solvent reflux, then cool it to room temperature, further agitate it for 1 hour, and allow it to stand for 16 hours. Filter the supernatant liquid with a 0.2-μm PTFE filter to obtain a saturated solution. Dry the solution under reduced pressures to calculate solubility of each compound against each solvent. Evaluation criteria are as follows.
A: Solubility is 0.5% by weight or more.
B: Solubility is 0.05% by weight or more and less than 0.5% by weight.
C: Solubility is 0.005% by weight or more and less than 0.05% by weight.
D: Solubility is less than 0.005% by weight.

Data set [2] can be described thus: Thermogravimetric measurement of the elimination reaction (EXSTAR 6200, nitrogen atmosphere). The format is physicochemical. As to conditions: observed within 190 to 210° C. How it is done: Put the above-prepared substituent-eliminable derivative No. 6 (5 mg, […]) in an aluminum pan and heat it to 300° C. at a rate of 10° C./min with a thermal analysis instrument (EXSTAR 6200 from Seiko Instruments Inc.) under nitrogen atmosphere. Thus, a dark purple solid (3.8 mg) is obtained. m/z=704.1 (M+H).
Put the above-prepared substituent-eliminable derivative No. 9 (5 mg, […] in an aluminum pan and heat it to 250° C. at a rate of 20° C./min with a thermal analysis instrument (EXSTAR 6200 from Seiko Instruments Inc.) under nitrogen atmosphere. Thus, a dark purple solid (3.8 mg) is obtained. m/z=704.1 (M+H). The thermogravimetric measurement result is shown in FIG. 3.
Repeat the procedures in Example 4 except for replacing the substituent-eliminable derivative No. 6 with No. 16 (5 mg, 4.6 μmol). Thus, a dark purple specific compound (4.2 mg) is obtained. m/z=872.2 (M+H).

[3] abbreviates: heated to 300° C. at 10° C./min.

As to `CCCCC(CC)CN1C(=O)C2=C(c3ccc(-c4cccc(O)c4)s3)N(CC(CC)CCCC)C(=O)C2=C1c1ccc(-c2cccc(O)c2)s1` (stereo not drawn) [Specific Compound No. 9], in data set [1], the “Solubility in THF” value is given as “D (Solubility is less than 0.005% by weight.)”, the “Solubility in Chloroform” value is “D (Solubility is less than 0.005% by weight.)” and the “Solubility in Toluene” value is given as “D (Solubility is less than 0.005% by weight.)”.

Regarding `CCCCC(CC)CN1C(=O)C2=C(c3ccc(-c4ccc(O)cc4)s3)N(CC(CC)CCCC)C(=O)C2=C1c1ccc(-c2ccc(O)cc2)s1` (stereo not drawn) [Specific Compound No. 6], in data set [1], the “Solubility in THF” value was “D (Solubility is less than 0.005% by weight.)”, the “Solubility in Chloroform” value was “D (Solubility is less than 0.005% by weight.)” and the “Solubility in Toluene” value is reported as “D (Solubility is less than 0.005% by weight.)”.

With `CCCCC(CC)CN1C(=O)C2=C(c3ccc(-c4ccc(OC(=O)OC(C)(C)C)cc4)s3)N(CC(CC)CCCC)C(=O)C2=C1c1ccc(-c2ccc(OC(=O)OC(C)(C)C)cc2)s1` (stereo not drawn) [Substituent-eliminable Derivative No. 6], in data set [2] (setting [3]), the “Decrease in weight (thermogravimetric)” value amounted to 21.5%. Moreover, in data set [1], the “Solubility in THF” value is given as “A (Solubility is 0.5% by weight or more.)”; the “Solubility in Chloroform” value is “A (Solubility is 0.5% by weight or more.)”; the “Solubility in Toluene” value was “B (Solubility is 0.05% by weight or more and less than 0.5% by weight.)”.

On to `CCCCC(CC)CN1C(=O)C2=C(c3ccc(-c4ccc(-c5cccc(O)c5)s4)s3)N(CC(CC)CCCC)C(=O)C2=C1c1ccc(-c2ccc(-c3cccc(O)c3)s2)s1` (stereo not drawn) [Specific Compound No. 16], for which, in data set [1], the “Solubility in THF” value was “D (Solubility is less than 0.005% by weight.)”, the “Solubility in Chloroform” value is recorded as “D (Solubility is less than 0.005% by weight.)” and the “Solubility in Toluene” value is “D (Solubility is less than 0.005% by weight.)”.

Regarding `CCCCC(CC)CN1C(=O)C2=C(c3ccc(-c4cccc(OC(=O)OC(C)(C)C)c4)s3)N(CC(CC)CCCC)C(=O)C2=C1c1ccc(-c2cccc(OC(=O)OC(C)(C)C)c2)s1` (stereo not drawn) [Substituent-eliminable Derivative No. 9], in data set [2] (heated to 250° C. at 20° C./min), the “Decrease in weight (thermogravimetric)” value was 21.2%. In addition, in data set [1], the “Solubility in THF” value is given as “A (Solubility is 0.5% by weight or more.)”, the “Solubility in Chloroform” value is recorded as “A (Solubility is 0.5% by weight or more.)” and the “Solubility in Toluene” value was “A (Solubility is 0.5% by weight or more.)”.

As for `CCCCC(CC)CN1C(=O)C2=C(c3ccc(-c4ccc(-c5cccc(OC(=O)OC(C)(C)C)c5)s4)s3)N(CC(CC)CCCC)C(=O)C2=C1c1ccc(-c2ccc(-c3cccc(OC(=O)OC(C)(C)C)c3)s2)s1` (stereo not drawn) [Substituent-eliminable Derivative No. 16], in data set [2] (setting [3]), the “Decrease in weight (thermogravimetric)” value is recorded as 18.5%. In addition, in data set [1], the “Solubility in THF” value is recorded as “A (Solubility is 0.5% by weight or more.)”, the “Solubility in Chloroform” value is on record as “A (Solubility is 0.5% by weight or more.)” and the “Solubility in Toluene” value is recorded as “A (Solubility is 0.5% by weight or more.)”.
